{"source": "paper PMC7311426", "about": "“An amphipathic peptide with antibiotic activity against multidrug-resistant Gram-negative bacteria” (Nature Communications, 2020)", "key": {"K. pneumoniae": {"system": "K. pneumoniae", "assay": "microbe, parasite or virus in culture", "format": "cell-based, Klebsiella pneumoniae", "details": "for MIC, Serum (50%) replicates: K. pneumoniae ATCC 700603, ESBL, BMD with 50% human serum"}, "[1]": {"system": "K. pneumoniae (#3010 & ST258)", "assay": "microbe, parasite or virus in culture", "format": "cell-based, Klebsiella pneumoniae", "protocol": "The test media was cation-adjusted MHB (CAMHB, Becton Dickinson) supplemented with 2% Noble Agar (Becton Dickinson) and additionally for AA139 with 0.1% BSA. The agar dilution MIC values were determined as recommended by Clinical and Laboratory Standards Institute (CLSI)[47]. […] The inoculum for the spontaneous mutation plates targeted 10^9 to 10^10 colony-forming units (CFU) per plate. The viable count of each suspension was determined by plating serial ten-fold dilutions onto MHB/NA in duplicate. In addition, agar plates without drug were inoculated as positive controls. Plates were inspected for growth at both 24 and 48 h. Colony counts were determined manually. Using the counts at 48 h, the spontaneous mutation frequency was calculated using the following equation: (average number of colonies from duplicate selection plates)/(total number of cells inoculated onto each plate). If there were no colonies on the antibiotic selection plates, the spontaneous mutation frequency was reported as less than the frequency observed with one colony to indicate that the spontaneous mutation frequency was less than the limit of detection (one CFU)."}, "E. coli ATCC 25922": {"system": "E. coli ATCC 25922", "format": "cell-based, Escherichia coli"}, "P. aeruginosa": {"system": "P. aeruginosa", "assay": "microbe, parasite or virus in culture", "format": "cell-based, Pseudomonas aeruginosa", "set-up": "MIC, Survanta (5%) replicates: unit not given beside the values"}, "[2]": {"details": "K. pneumoniae ATCC 700603 ESBL, OXA-2/SHV-18, n=2 to 6, mode or median"}, "[3]": {"details": "P. aeruginosa ATCC 27853 control strain, n=2 to 6, mode or median"}, "[4]": {"details": "P. aeruginosa FADDI-070 MDR, PmxR, n=2 to 6, mode or median"}}, "note": "Where two headings read alike, the source gives them in different places.", "data": [{"substance": "colistin", "values": [{"measurement": "MIC, Serum (50%) replicates", "setting": "K. pneumoniae; OXA-2/SHV-18, replicate 2", "result": 0.25}, {"measurement": "MIC, Serum (50%) replicates", "setting": "K. pneumoniae; OXA-2/SHV-18, replicate 3", "result": 0.031}, {"measurement": "MIC, Serum (50%) replicates", "setting": "K. pneumoniae; OXA-2/SHV-18, replicate 4", "result": 0.063}, {"measurement": "MIC, Serum (50%) replicates", "setting": "K. pneumoniae; OXA-2/SHV-18, replicate 5", "result": 0.031}, {"measurement": "MIC, Serum (50%) replicates", "setting": "K. pneumoniae; OXA-2/SHV-18, replicate 6", "result": "≤0.031"}, {"measurement": "MIC, Serum (50%)", "setting": "K. pneumoniae; [2]", "result": 0.125, "unit": "µg/mL"}, {"measurement": "MIC, Survanta (5%)", "setting": "K. pneumoniae; [2]", "result": 0.125, "unit": "µg/mL"}, {"measurement": "MIC, Survanta (5%)", "setting": "K. pneumoniae; K. pneumoniae BAA-2146, NDM-1, BMD with 5% Survanta lung surfactant, mode, or median where no mode, n=4 to 6, where n=2 differs the higher value", "result": 0.06}, {"measurement": "MIC, Survanta (5%) replicates", "setting": "K. pneumoniae; K. pneumoniae BAA-2146, NDM-1, BMD with 5% Survanta lung surfactant, replicate 1", "result": 0.125}, {"measurement": "MIC, Survanta (5%) replicates", "setting": "K. pneumoniae; K. pneumoniae BAA-2146, NDM-1, BMD with 5% Survanta lung surfactant, replicate 2", "result": 0.125}, {"measurement": "MIC, Survanta (5%) replicates", "setting": "K. pneumoniae; K. pneumoniae BAA-2146, NDM-1, BMD with 5% Survanta lung surfactant, replicate 3", "result": "≤0.03"}, {"measurement": "MIC, Survanta (5%) replicates", "setting": "K. pneumoniae; K. pneumoniae BAA-2146, NDM-1, BMD with 5% Survanta lung surfactant, replicate 4", "result": "≤0.03"}, {"measurement": "MIC, Survanta (5%)", "setting": "K. pneumoniae; K. pneumoniae BAA-2146 NDM-1, n=2 to 6, mode or median", "result": 0.06, "unit": "µg/mL"}, {"measurement": "Noble agar dilution MIC", "setting": "[1]; K. pneumoniae SSI#3010", "result": 1, "unit": "µg/mL"}, {"measurement": "Agar (Noble) Dilution MIC", "setting": "[1]; K. pneumoniae ST258", "result": 1, "unit": "µg/mL"}, {"measurement": "Noble agar dilution MIC", "setting": "[1]; K. pneumoniae ST258", "result": 1, "unit": "µg/mL"}, {"measurement": "MIC, Survanta (5%)", "setting": "E. coli ATCC 25922; E. coli ATCC 25922, FDA control strain, BMD with 5% Survanta lung surfactant, mode, or median where no mode, n=4 to 6, where n=2 differs the higher value", "result": "≤0.06"}, {"measurement": "MIC, Survanta (5%)", "setting": "E. coli ATCC 25922; E. coli ATCC 25922, MHB + 5% (v/v) lung surfactant, n=2 to 6, mode or median", "result": "≤ 0.06", "unit": "µg/mL"}, {"measurement": "MIC, Survanta (5%)", "setting": "P. aeruginosa; P. aeruginosa ATCC 27853, control strain, BMD with 5% Survanta lung surfactant, mode, or median where no mode, n=4 to 6, where n=2 differs the higher value", "result": 0.25}, {"measurement": "MIC, Survanta (5%) replicates", "setting": "P. aeruginosa; P. aeruginosa ATCC 27853, control strain, BMD with 5% Survanta lung surfactant, replicate 1", "result": 0.5}, {"measurement": "MIC, Survanta (5%) replicates", "setting": "P. aeruginosa; P. aeruginosa ATCC 27853, control strain, BMD with 5% Survanta lung surfactant, replicate 2", "result": 0.5}, {"measurement": "MIC, Survanta (5%) replicates", "setting": "P. aeruginosa; P. aeruginosa ATCC 27853, control strain, BMD with 5% Survanta lung surfactant, replicate 3", "result": 0.125}, {"measurement": "MIC, Survanta (5%) replicates", "setting": "P. aeruginosa; P. aeruginosa ATCC 27853, control strain, BMD with 5% Survanta lung surfactant, replicate 4", "result": 0.125}, {"measurement": "MIC, Serum (50%)", "setting": "P. aeruginosa; P. aeruginosa ATCC 27853, control strain, BMD with 50% human serum, mode, or median where no mode, n=4 to 6, where n=2 differs the higher value", "result": 0.25}, {"measurement": "MIC, Serum (50%) replicates", "setting": "P. aeruginosa; P. aeruginosa ATCC 27853, control strain, BMD with 50% human serum, replicate 1", "result": 0.5}, {"measurement": "MIC, Serum (50%) replicates", "setting": "P. aeruginosa; P. aeruginosa ATCC 27853, control strain, BMD with 50% human serum, replicate 2", "result": 0.5}, {"measurement": "MIC, Serum (50%) replicates", "setting": "P. aeruginosa; P. aeruginosa ATCC 27853, control strain, BMD with 50% human serum, replicate 3", "result": 0.25}, {"measurement": "MIC, Serum (50%) replicates", "setting": "P. aeruginosa; P. aeruginosa ATCC 27853, control strain, BMD with 50% human serum, replicate 4", "result": 0.25}, {"measurement": "MIC, Serum (50%) replicates", "setting": "P. aeruginosa; P. aeruginosa ATCC 27853, control strain, BMD with 50% human serum, replicate 5", "result": 0.125}, {"measurement": "MIC, Serum (50%) replicates", "setting": "P. aeruginosa; P. aeruginosa ATCC 27853, control strain, BMD with 50% human serum, replicate 6", "result": 0.125}, {"measurement": "MIC, Serum (50%)", "setting": "P. aeruginosa; [3]", "result": 0.25, "unit": "µg/mL"}, {"measurement": "MIC, Survanta (5%)", "setting": "P. aeruginosa; [3]", "result": 0.25, "unit": "µg/mL"}, {"measurement": "MIC, Survanta (5%)", "setting": "P. aeruginosa; P. aeruginosa FADDI-070, MDR, PmxR, BMD with 5% Survanta lung surfactant, mode, or median where no mode, n=4 to 6, where n=2 differs the higher value", "result": "≥64"}, {"measurement": "MIC, Survanta (5%) replicates", "setting": "P. aeruginosa; P. aeruginosa FADDI-070, MDR, PmxR, BMD with 5% Survanta lung surfactant, replicate 1", "result": 64}, {"measurement": "MIC, Survanta (5%) replicates", "setting": "P. aeruginosa; P. aeruginosa FADDI-070, MDR, PmxR, BMD with 5% Survanta lung surfactant, replicate 2", "result": 64}, {"measurement": "MIC, Survanta (5%) replicates", "setting": "P. aeruginosa; P. aeruginosa FADDI-070, MDR, PmxR, BMD with 5% Survanta lung surfactant, replicate 3", "result": ">64"}, {"measurement": "MIC, Survanta (5%) replicates", "setting": "P. aeruginosa; P. aeruginosa FADDI-070, MDR, PmxR, BMD with 5% Survanta lung surfactant, replicate 4", "result": ">64"}, {"measurement": "MIC, Serum (50%) replicates", "setting": "P. aeruginosa; P. aeruginosa FADDI-070, MDR, PmxR, BMD with 50% human serum, replicate 1", "result": 0.25}, {"measurement": "MIC, Serum (50%) replicates", "setting": "P. aeruginosa; P. aeruginosa FADDI-070, MDR, PmxR, BMD with 50% human serum, replicate 2", "result": 0.125}, {"measurement": "MIC, Serum (50%)", "setting": "P. aeruginosa; P. aeruginosa FADDI-070, MDR, PmxR, BMD with 50% human serum, where n=2 differs the higher value is recorded", "result": 0.25}, {"measurement": "MIC, Serum (50%)", "setting": "P. aeruginosa; [4]", "result": 0.25, "unit": "µg/mL"}, {"measurement": "MIC, Survanta (5%)", "setting": "P. aeruginosa; [4]", "result": "≥ 64", "unit": "µg/mL"}]}]}
